Patent publication US11801242B2, “Compositions and methods for adjuvant cancer therapeutics” (DUKE UNIVERSITY, priority 2018, dated 2023)

Test system: REV1 CTD-REV7 interaction
Assay: ELISA assay probing the REV1 CTD-REV7 interaction
Format: binding, mouse
Details: ratio of test compound IC50 to RE01 IC50
Method: The ELISA assay for probing the REV1 CTD-REV7 interaction was carried out by immobilizing 50 nM His8-tagged REV7/3 in 200 μL phosphate-buffered saline (PBS, Gibco) containing 0.2% BSA in a Ni-NTA coated 96-well plate (HisSorb, Qiagen) for 30 minutes. Unbound His8-tagged REV7/3 was removed by washing the wells four times with PBS containing 0.05% Tween-20. […] After incubation for 30 minutes, the wells were washed four times with PBS containing 0.05% Tween-20 to remove the unbound FLAG-tagged POL κ RIR-REV1 CTD. A solution of the anti-FLAG horseradish peroxidase (HRP)-conjugated antibody (Sigma-Aldrich) in PBS containing 0.2% BSA was then added to the wells. After incubating for 1 hour, the antibody was washed off four times with PBS containing 0.05% Tween-20. The 3,3′,5,5′-tetramethylbenzedine (TMB) substrate (SureBlue TMB, Seracare) was added to the wells. After incubation of 20-30 minutes, the reaction was quenched with 1 M HCl. A SpectraMax plate reader (Molecular Devices) was used to measure absorbance at 450 nm.

| Structure (SMILES) | Relative IC50 Ratio |
| --- | --- |
| CC(C)CC(=O)c1c(Nc2ccc(Cl)cc2Cl)[nH]c2c(Cl)cccc2c1=O [RE25, 8-chloro-2-((2,4-dichlorophenyl)amino)-3-(3-methylbutanoyl)quinolin-4(1H)-one] | C (C represents a ratio of test compound IC50 to RE01 IC50 between 1.5-10) |
| Cc1ccc(Cl)c2[nH]c(Nc3ccc(Cl)cc3Cl)c(C(=O)CC(C)C)c(=O)c12 [RE27, 8-chloro-2-((2,4-dichlorophenyl)amino)-5-methyl-3-(3-methylbutanoyl)quinolin-4(1H)-one] | C (C represents a ratio of test compound IC50 to RE01 IC50 between 1.5-10) |
| CC(C)CC(=O)c1c(Nc2ccc(Cl)c(Cl)c2)[nH]c2c(Cl)ccc([N+](=O)[O-])c2c1=O [RE31, 8-chloro-2-((3,4-dichlorophenyl)amino)-3-(3-methylbutanoyl)-5-nitroquinolin-4(1H)-one] | C (C represents a ratio of test compound IC50 to RE01 IC50 between 1.5-10) |
| CC(O)c1c(Nc2ccc(Cl)cc2Cl)[nH]c2c(Cl)ccc([N+](=O)[O-])c2c1=O (stereo not shown) [RE15, 8-chloro-2-((2,4-dichlorophenyl)amino)-3-(1-hydroxyethyl)-5-nitroquinolin-4(1H)-one] | B (B represents a ratio of test compound IC50 so to RE1 IC50 between 0.8 and 1.5) |
| CC(C)CC(=O)c1c(Nc2c(F)cc(F)cc2F)[nH]c2c(Cl)ccc([N+](=O)[O-])c2c1=O [RE33, 8-chloro-3-(3-methylbutanoyl)-5-nitro-2-((2,4,6-trifluorophenyl)amino)quinolin-4(1H)-one] | C (C represents a ratio of test compound IC50 to RE01 IC50 between 1.5-10) |
| CC(C)CC(=O)c1c(Nc2ccc(I)cc2I)[nH]c2c(Cl)ccc([N+](=O)[O-])c2c1=O [RE17, 8-chloro-2-((2,4-diiodophenyl)amino)-3-(3-methylbutanoyl)-5-nitroquinolin-4(1H)-one] | B (B represents a ratio of test compound IC50 so to RE1 IC50 between 0.8 and 1.5) |
| CC(C)CC(=O)c1c(Nc2ccc(Cl)cc2Cl)[nH]c2cc([N+](=O)[O-])ccc2c1=O [RE35, 2-((2,4-dichlorophenyl)amino)-3-(3-methylbutanoyl)-7-nitroquinolin-4(1H)-one] | A (A represents a ratio of test compound IC50 to RE01 IC50 of less than 0.8) |
| CC(C)CC(=O)c1c(Nc2ccc(Cl)cc2Cl)[nH]c2c(Cl)cc([N+](=O)[O-])cc2c1=O [RE34, 8-chloro-2-((2,4-dichlorophenyl)amino)-3-(3-methylbutanoyl)-6-nitroquinolin-4(1H)-one] | A (A represents a ratio of test compound IC50 to RE01 IC50 of less than 0.8) |
| Cc1ccc(Nc2[nH]c3c(Cl)ccc([N+](=O)[O-])c3c(=O)c2C(=O)CC(C)C)c(C)c1 [RE22, 8-chloro-2-((2,4-dimethylphenyl)amino)-3-(3-methylbutanoyl)-5-nitroquinolin-4(1H)-one] | C (C represents a ratio of test compound IC50 to RE01 IC50 between 1.5-10) |
| CC(C)CC(=O)c1c(Nc2ccc(Cl)cc2Cl)[nH]c2c(C(=O)O)ccc([N+](=O)[O-])c2c1=O [RE10, 2-((2,4-dichlorophenyl)amino)-3-(3-methylbutanoyl)-5-nitro-4-oxo-1,4-dihydroquinoline-8-carboxylic acid] | B (B represents a ratio of test compound IC50 so to RE1 IC50 between 0.8 and 1.5) |
| CC(C)CC(=O)c1c(Nc2ccc(Cl)cc2Cl)[nH]c2ccccc2c1=O [RE28, 2-((2,4-dichlorophenyl)amino)-3-(3-methylbutanoyl)quinolin-4(1H)-one] | A (A represents a ratio of test compound IC50 to RE01 IC50 of less than 0.8) |

Molecular target: T1, chimeric REV1 CTD protein (Mus musculus, UniProt Q920Q2)
T1 construct: the mouse REV1 CTD (F1150-T1249); His10-GB1 (TEV site) (N, cleaved yes); made in house; host or cells: E. coli BL21 Star (DE3)
T1 sequence (Q920Q2 1150-1249): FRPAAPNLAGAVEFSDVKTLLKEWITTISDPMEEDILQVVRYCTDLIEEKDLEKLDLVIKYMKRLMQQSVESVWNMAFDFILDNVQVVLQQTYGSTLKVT
Assay: Isothermal titration calorimetry
Format: binding
Details: 25° C.
Method: Isothermal titration calorimetry measurements were carried out using a MicroCal VP-ITC instrument at 25° C., with the chimeric REV1 CTD protein (300 μM) in the syringe and compound (15 μM) in the cell. Compounds were initially dissolved in 50% MPD. Protein and compound samples were diluted in a buffer containing 50 mM HEPES pH 7.5, 50 mM KCl, 2 mM TCEP, 2% DMSO and 0.1% MPD. Microcal Origin 7 software was used to analyze the data.

| Structure (SMILES) | REV1 CTD binding |
| --- | --- |
| CC(C)CC(=O)c1c(N2CCOCC2)[nH]c2c(Cl)ccc([N+](=O)[O-])c2c1=O [RE07, 8-chloro-3-(3-methylbutanoyl)-2-morpholino-5-nitroquinolin-4(1H)-one] | abolished the REV1 CTD binding |

Test system: A375 cells
Assay: qRT-PCR of p21 mRNA
Format: cell-based, human
Details: cisplatin 1 μM alone
Method: Total RNA was isolated by using the RNeasy Mini kit (Qiagen) from cells treated with RE01 (1.5 μM), cisplatin (1 μM) and a combination of both RE01 (1.5 μM) and cisplatin (1 μM). 5 ng of RNA from each sample was mixed with 10 μl of Applied Biosystems™ PowerUp™ SYBR™ Green Master Mix (ThermoFisher), 1 μl of MultiScribe™ Reverse Transcriptase (ThermoFisher), 0.1 μl of RNaseOUT™ Recombinant Ribonuclease Inhibitor and 5.9 μl of RNase-free water, and run in a one-step qRT-PCR reaction. Each reaction was run in triplicate. Primers used were: p21 F 5′-[…]-3′ (SEQ ID NO: 9), p21 R 5-CGGCGTTTGGAGTGG TAGAAA-3′ (SEQ ID NO: 10); GAPDH F 5′-[…]-3′ (SEQ ID NO: 11), GAPDH R 5′-[…]-3′ (SEQ ID NO: 12).

| Structure (SMILES) | levels of the p21 biomarker |
| --- | --- |
| N.N.[Cl][Pt][Cl] [cisplatin, cis-diammineplatinum(II) dichloride, reference compound] | elevated levels |
